The text below walks through data of patent publication US20260055118A1, “VISIBLE LIGHT SENSITIVE PHOTOREMOVABLE PROTECTING GROUPS, PREPARATION PROCESS THEREOF, PHOTOACTIVATABLE CONJUGATES COMPRISING THEM AND USES THEREOF” (HUN-REN TERMÉSZETTUDOMÁNYI KUTATÓKÖZPONT, priority 2022, published 2026).

Data set [1] is described as follows: Spectroscopic properties of the target conjugates in PBS. In kind it is physicochemical. As for the experimental part: All starting materials were obtained from commercial suppliers and used without further purification. Analytical thin-layer chromatography (TLC) was performed on silica gel 60 F254 precoated aluminum TLC plates from Merck. Flash column chromatography was performed on Teledyne Isco CombiFlash® Rf+ automated flash chromatographer with silica gel (25-40 μm) from Zeochem. NMR spectra were recorded on a Varian Inova 500 MHz spectrometer. Chemical shifts (δ) are given in parts per million (ppm) using solvent signals or TMS as the reference. Coupling constants (J) are reported in Hertz (Hz). Analytical RP-HPLC-UV/Vis-MS measurements were employed using a Shimadzu LCMS-2020 instrument applying a Gemini C18 column (100×2.00 mm I.D.) in which the stationary phase is […] with a pore size of 110 Å. The chromatograms were detected by a UV-Vis diode array (190-800 nm) and an ESI-MS detector. The following linear gradient elution profile was applied, 0 min 0% B; 6.5 min 100% B; 7 min 0% B; 8 min. 0% B) with eluent A (2% HCOOH, 5% MeCN and 93% water) and B (2% HCOOH, 80% MeCN and 18% water) at a flow rate of 1.0 mL min-1 at 30° C. The samples were dissolved in MeCN—water mixtures. Spectroscopic measurements were performed on a Jasco FP 8300 spectrofluorometer. Quartz cuvettes with path length of 1 cm were used.
The spectroscopic properties of the target conjugates were determined in PBS. […] Compounds with Q=O have absorption bands in the green-yellow region while Q=CMe2 derivatives absorb in the red (up to 700 nm). All of the compounds have moderate to high absorption coefficients and significant fluorescence. The spectroscopic details can be found in Table 1. In the table, λmax means absorption maximum; λem means fluorescence emission maximum; s means molar absorption coefficient (at the absorption maximum).

Data set [2] in a line: Uncaging quantum yield determination relative to BODIPY reference. Format: physicochemical. To be noted: calculated from the disappearance of the target conjugate; green light irradiation. As for the experimental part: The relative photochemical quantum yields of the uncaging reactions together with the degradation quantum yields were determined from the results of the quantitative HPLC-UV experiments. In all cases, green light irradiation was used since all target conjugates absorbed in this range as well as the reference BODIPY. The photochemical quantum yields were determined using the following equation:
[formula] • where • Φu is the photochemical quantum yield of the sample • Φu,ref is the photochemical quantum yield of the reference • k is the obtained reaction rate constant of the photoreaction of the sample • kref is the obtained reaction rate constant of the photoreaction of the reference • c is the concentration of the sample • cref is the concentration of the reference • V is the volume of the sample • Vref is the volume of the reference • a is the absorption correction factor of the sample • aref is the absorption correction factor of the reference
The absorption correction factors (a) were determined from the molar absorption coefficients and the green LED emission data obtained by the fluorimeter. […] In other words, the transmittance at each wavelength together with the emission data of the light source can be used to calculate the percentage of absorbed photons according to the following equation:
[formula] • where • T(λ) is the transmittance at each wavelength (determined from the molar absorption coefficients) • F(λ) is the LED emission at each wavelength • λmin, λmax is the LED emission range.
The rate constants of the photoreactions were determined by considering the reactions monoexponential with an initial linear phase (up to 10-20% degradation). First, the concentration vs. HPLC-UV peak were determined for each cargo moieties. […] The rate constants were determined for both the reference (with known Φu) and the sample. For reference, a commonly known BODIPY derivative was used with a similar phenylacetic acid-derived cargo unit (substrate 7 from REF^40), Φu=0.15%:
The calculated photochemical quantum yields together with uncaging cross-sections or quantum efficiencies (product of the molar absorption coefficient at a given wavelength, shown in parentheses and the photochemical quantum yield) are shown in Table 2. In the table, Φu is the photochemical quantum yield of the release; Φdeg is the photochemical quantum yield of degradation; ε×Φu is the uncaging cross-section or quantum efficiency of the release at a given wavelength in parentheses.

Take `CCc1c2c(nc3ccc(OC(=O)N(C)CCN(C)C(=O)OC(C)c4c5ccc(=[N+]6CCCC6)cc-5oc5cc(N6CCCC6)ccc45)cc13)-c1cc3c(c(=O)n1C2)COC(=O)C3(O)CC.[I-]` (mixture of isomers) [X1′-SN38]: in data set [1], the “λem (fluorescence emission maximum)” value is recorded as 594 nm and the “λmax (absorption maximum)” value is listed as 575 nm. Further, the “ε (molar absorption coefficient)” value in data set [1] (at the absorption maximum) is 61 200 M^−1cm^−1. Also, the “Φdeg, degradation quantum yield” value in data set [2] was 0.15%.
